Experimental findings from US20120328569A1, “INHIBITORS OF HEPATITIS C VIRUS NS5B POLYMERASE” (priority 2010, published 2012) are described below.

Each structure is given as a SMILES string.

The subject of one experiment is HCV genotype 1b replicon. As to the kind of experiment: HCV replicon assay, cell ELISA with antibody to replicon-encoded NS3/4A (genotype 1b replicon). It counts as cell-based, hepatitis C virus. The note with it: Hepatitis C virus, 96 h, read-out: 1b IC50(nM), HCV genotype 1b replicon; 96 hours incubation; NS3/4A cell ELISA. The procedure, abridged:
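Replicon-harbouring cells carrying neomycin phosphotransferase were incubated 96 h with a compound dilution series without G418. Replication was quantified indirectly by a cell ELISA detecting replicon-encoded NS3/4A. IC50 values were calculated relative to DMSO control with a four-parameter fit.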
(Replicon systems follow genome replication, usually without infectious particles.)
For orientation: IC50 means the concentration that inhibits the measured activity by half. In the case of `CNC(=O)c1c(-c2ccc(F)cc2)oc2cc(N(C)S(C)(=O)=O)c(-c3ccc(N4CCNC4=O)c(-c4nc5c(F)cccc5o4)c3)cc12` [Example 484], the IC50 stood at 3.31 nM.

For `CNC(=O)c1c(-c2ccc(F)cc2)oc2cc(N(C)S(C)(=O)=O)c(-c3csc(-c4nc5c(F)cccc5o4)c3)cc12` [Example 504], the IC50 came out at 1.53 nM. On to `CNC(=O)c1c(-c2ccc(F)cc2)oc2cc(N(C)S(C)(=O)=O)c(-c3cnc(OC)c(-c4nc5c(F)cccc5o4)c3)cc12` [Example 507], for which the IC50 stood at 0.68 nM.

For `CNC(=O)c1c(-c2ccc(F)cc2)oc2cc(N(C)S(C)(=O)=O)c(-c3cc(-c4nc5ncccc5o4)ccn3)cc12` [Example 509], the IC50 amounted to 3 nM. For `CNC(=O)c1c(-c2ccc(F)cc2)oc2cc(N(C)S(C)(=O)=O)c(-c3cccc(-c4nc5c(o4)CCCC5(F)F)c3)cc12` [Example 515], the IC50 worked out at 3.99 nM. For the compound `CNC(=O)c1c(-c2ccc(F)cc2)oc2cc(N(C)S(C)(=O)=O)c(-c3cccc(-c4cc5c(o4)CCN(C(C)=O)C5)c3)cc12` [Example 517], the half-maximal inhibitory concentration (IC50) is 7 nM.

As for `CNC(=O)c1c(-c2ccc(F)cc2)oc2cc(N(C)S(C)(=O)=O)c(C#Cc3ccccc3)cc12` [Example 547], the IC50 was determined as 23.2 nM. On the same count and under the same terms, next, `CNC(=O)c1c(-c2ccc(F)cc2)oc2cc(N(C)S(C)(=O)=O)c(-c3cccc(-n4nc5ccccc5c4-c4cccnc4)c3)cc12` [Example 549]: 65.9 nM. For the compound `CNC(=O)c1c(-c2ccc(F)cc2)oc2cc(N(C)S(C)(=O)=O)c(-c3ccc(OC)c(-c4nc5cc(F)cc(F)c5o4)c3)cc12` [Example 551], the IC50 came to 1.3 nM. Same read-out and setting: next, `CNC(=O)c1c(-c2ccc(F)cc2)oc2cc(N(C)S(C)(=O)=O)c(-c3cc(C#N)cc(-c4cc5ccccc5[nH]4)c3)cc12` [Example 558]: 5.81 nM; `CNC(=O)c1c(-c2ccc(F)cc2)oc2cc(N(C)S(C)(=O)=O)c(-c3ccc4c(c3)-c3c(Cl)c5ccccc5n3C(C3CC3)O4)cc12` (stereo not drawn) [Example 588]: 50.4 nM; `CNC(=O)c1c(-c2ccc(F)cc2)oc2cc(N(C)S(C)(=O)=O)c(-c3ccc4c(c3)-c3[nH]c5ccccc5c3C(c3cccnc3)O4)cc12` (stereo not drawn) [Example 589]: 3.38 nM. As for `CNC(=O)c1c(-c2ccc(F)cc2)oc2cc(N(C)S(C)(=O)=O)c(-c3ccc4c(c3)-c3[nH]c5ccccc5c3C(C(C)(C)C)O4)cc12` (stereo not drawn) [Example 590], the IC50 is 44.1 nM. Same read-out and setting: next, `CNC(=O)c1c(-c2ccc(F)cc2)oc2cc(N(C)S(C)(=O)=O)c(-c3cccc(-c4cc5cc(F)ccc5n4CCO)c3)cc12` [Example 598]: 3.43 nM; `CNC(=O)c1c(-c2ccc(F)cc2)oc2cc(N(C)S(C)(=O)=O)c(-c3ccc(O)c(-c4nc5c(F)cccc5o4)c3)cc12` [Example 606, 5-(3(4-fluorobenzo[d]oxazol-2-yl)-4-hydroxyphenyl)-2(4-fluorophenyl)-N-methyl-6-(N-methylmethylsulfonamido)benzofuran-3-carboxamide]: 9.32 nM.

Turning to `CNC(=O)c1c(-c2ccc(F)cc2)oc2cc(N(C)S(C)(=O)=O)c(-c3ccc(O)c(-c4nc5c(Cl)cccc5o4)c3)cc12` [Example 607], the IC50 stood at 27.1 nM. The same measure, in the same setting: next, `CNC(=O)c1c(-c2ccc(F)cc2)oc2cc(N(C)S(C)(=O)=O)c(-c3cc(-c4nc5cccc(F)c5o4)ccc3O)cc12` [Example 611]: 11.1 nM. Same read-out and setting: the value for `CNC(=O)c1c(-c2ccc(F)cc2)oc2cc(N(C)S(C)(=O)=O)c(-c3ccc(OCCO)c(-c4nc5c(F)cccc5o4)c3)cc12` [Example 620] was 1.66 nM; that for `CNC(=O)c1c(-c2ccc(F)cc2)oc2cc(N(C)S(C)(=O)=O)c(-c3ccc(OCC(F)F)c(-c4cc5ccccc5[nH]4)c3)cc12` [Example 622] was 647 nM. Take `CNC(=O)c1c(-c2ccc(F)cc2)oc2cc(N(C)S(C)(=O)=O)c(-c3cc(OS(C)(=O)=O)cc(-c4nc5c(F)cccc5o4)c3)cc12` [Example 627]: the IC50 amounted to 1.4 nM. Still for that read-out and setting: next, `CNC(=O)c1c(-c2ccc(F)cc2)oc2cc(N(C)S(C)(=O)=O)c(-c3ccc(OC)c(-c4nc5cc(C(N)=O)ccc5o4)c3)cc12` [Example 632]: 4.61 nM.

Turning to `CNC(=O)c1c(-c2ccc(F)cc2)oc2cc(N(C)S(C)(=O)=O)c(-c3ccc(OC)c(-c4nc5c(C(=O)NC)cccc5o4)c3)cc12` [Example 637], the half-maximal inhibitory concentration (IC50) amounted to 4.03 nM.

As to `CNC(=O)c1c(-c2ccc(F)cc2)oc2cc(N(C)S(C)(=O)=O)c(-c3ccc(OC)c(-c4nc5c(C(=O)Nc6ccccc6)cccc5o4)c3)cc12` [Example 638], the IC50 is 29.8 nM. As for `CNC(=O)c1c(-c2ccc(F)cc2)oc2cc(N(C)S(C)(=O)=O)c(-c3cc(C(=O)O)cc(-c4nc5c(F)cccc5o4)c3)cc12` [Example 650, 3-(4-fluorobenzo[d]oxazol-2-yl)-5-(2-(4-fluorophenyl)-3-(methylcarbamoyl)-6-(N-methylmethylsulfonamido)benzofuran-5-yl)benzoic acid], the IC50 is 55.7 nM.

For the compound `CNC(=O)c1c(-c2ccc(F)cc2)oc2cc(N(C)S(C)(=O)=O)c(-c3ccc(C(=O)O)c(-c4nc5c(F)cccc5o4)c3)cc12` [Example 651], the IC50 turned out to be 155 nM. Consider `CNC(=O)c1cc(-c2nc3c(F)cccc3o2)cc(-c2cc3c(C(=O)NC)c(-c4ccc(F)cc4)oc3cc2N(C)S(C)(=O)=O)c1` [Example 654], for which the IC50 was 3.65 nM. As for `CNC(=O)c1c(-c2ccc(F)cc2)oc2cc(N(C)S(C)(=O)=O)c(-c3ccc(C(=O)N(C)C)c(-c4nc5c(F)cccc5o4)c3)cc12` [Example 655], the IC50 was 2.52 nM.

`CNC(=O)c1ccc(-c2cc3c(C(=O)NC)c(-c4ccc(F)cc4)oc3cc2N(C)S(C)(=O)=O)cc1-c1nc2c(F)cccc2o1` [Example 656]: the IC50 was determined as 8.41 nM. Same read-out and setting: the value for `CNC(=O)c1c(-c2ccc(F)cc2)oc2cc(N(C)S(C)(=O)=O)c(-c3ccc(OC)c(-c4nc5ccc(-c6cncnc6)cc5o4)c3)cc12` [Example 658, 2-(4-fluorophenyl)-5-(4-methoxy-3-(6-(pyrimidin-5-yl)benzo[d]oxazol-2-yl)phenyl)-N-methyl-6-(N-methylmethylsulfonamido) benzofuran-3-carboxamide] was 8.53 nM; that for `CNC(=O)c1c(-c2ccc(F)cc2)oc2cc(N(C)S(C)(=O)=O)c(-c3ccc(OC)c(-c4nc5ccc(-c6cccnc6)cc5o4)c3)cc12` [Example 659] was 8.62 nM.

As for `CNC(=O)c1c(-c2ccc(F)cc2)oc2cc(N(C)S(C)(=O)=O)c(-c3ccc(OC)c(-c4nc5cc(-c6cncnc6)ccc5o4)c3)cc12` [Example 663], the IC50 was found to be 2.5 nM. Take `CNC(=O)c1c(-c2ccc(F)cc2)oc2cc(N(C)S(C)(=O)=O)c(-c3cccc(-c4cc5c(F)cc(F)cc5s4)c3)cc12` [Example 685]: the IC50 was found to be 12 nM. On the same count and under the same terms, next, `CNC(=O)c1c(-c2ccc(F)cc2)oc2cc(N(C)S(C)(=O)=O)c(-c3ccc(OC)c(-c4csc5ncccc45)c3)cc12` [Example 686]: 17.6 nM; `CNC(=O)c1c(-c2ccc(F)cc2)oc2cc(N(C)S(C)(=O)=O)c(-c3ccc(OC)c(-c4cc5ccc(F)cc5s4)c3)cc12` [Example 687]: 27.3 nM; `CNC(=O)c1c(-c2ccc(F)cc2)oc2cc(N(C)S(C)(=O)=O)c(-c3ccc(OC)c(-c4cc5ncccc5s4)c3)cc12` [Example 688]: 7.53 nM.

`CNC(=O)c1c(-c2ccc(F)cc2)oc2cc(N(CC3CC(O)C3)S(C)(=O)=O)c(-c3ccc(OC)c(-c4nc5c(F)cccc5o4)c3)cc12` (stereo not drawn) [Example 701]: the IC50 was 6.21 nM.

`CNC(=O)c1c(-c2ccc(F)cc2)oc2cc(N(CC3CC3)S(C)(=O)=O)c(-c3ccc(OC)c(-c4nc5c(F)cc(F)cc5o4)c3)cc12` [Example 705]: the IC50 turned out to be 15.6 nM. As to `CNC(=O)c1c(-c2ccc(F)cc2)oc2cc(N(CC3CC3)S(C)(=O)=O)c(-c3ccc(OC)c(-c4nc5cc(F)cc(F)c5o4)c3)cc12` [Example 706], the IC50 came to 16.7 nM. For `CNC(=O)c1c(-c2ccc(F)cc2)oc2cc(N(Cc3cccnc3)S(C)(=O)=O)c(-c3ccc(OC)c(-c4nc5c(F)cccc5o4)c3)cc12` [Example 707], the IC50 amounted to 4.93 nM. As to `CNC(=O)c1c(-c2ccc(F)cc2)oc2cc(N(Cc3cccnc3)S(C)(=O)=O)c(-c3ccc(OC)c(-c4nc5c(C#N)cccc5o4)c3)cc12` [Example 708], the IC50 was 3.95 nM. With `CNC(=O)c1c(-c2ccc(F)cc2)oc2cc(N(Cc3cccnc3)S(C)(=O)=O)c(-c3ccc(OC)c(-c4nc5c(F)cc(F)cc5o4)c3)cc12` [Example 709], the IC50 came to 6.05 nM. As for `CNC(=O)c1c(-c2ccc(F)cc2)oc2cc(N(CC3CCS(=O)(=O)C3)S(C)(=O)=O)c(-c3ccc(OC)c(-c4nc5c(F)cccc5o4)c3)cc12` (stereo not drawn) [Example 717], the IC50 amounted to 2.84 nM. Consider `CNC(=O)c1c(-c2ccc(F)cc2)oc2cc(N(CC3CCS(=O)(=O)C3)S(C)(=O)=O)c(-c3ccc(OC)c(-c4nc5c(F)cc(F)cc5o4)c3)cc12` (stereo not drawn) [Example 718], for which the IC50 is 3.9 nM. Take `CNC(=O)c1c(-c2ccc(F)cc2)oc2cc(N(CC3CCS(=O)(=O)C3)S(C)(=O)=O)c(-c3cccc(-c4nc5ncccc5o4)c3)cc12` (stereo not drawn) [Example 719]: the IC50 was found to be 3.14 nM.

Regarding `CNC(=O)c1c(-c2ccc(F)cc2)oc2cc(N(C3COC3)S(C)(=O)=O)c(-c3ccc(OC)c(-c4nc5c(F)cccc5o4)c3)cc12` [Example 720], the IC50 was 41.6 nM.

Take `CNC(=O)c1c(-c2ccc(F)cc2)oc2cc(N(C3COC3)S(C)(=O)=O)c(-c3ccc(OC)c(-c4nc5c(F)cc(F)cc5o4)c3)cc12` [Example 721]: the IC50 worked out at 4.94 nM. `CNC(=O)c1c(-c2ccc(F)cc2)oc2cc(N(C3COC3)S(C)(=O)=O)c(-c3ccc(OC)c(-c4nc5c(C#N)cccc5o4)c3)cc12` [Example 722]: the IC50 was determined as 3.03 nM.

The experiment is the same for the next values; noted with them: read-out: 1b IC50; HCV genotype 1b replicon; 96 hours incubation; NS3/4A cell ELISA.
For `CNC(=O)c1c(-c2ccc(F)cc2)oc2cc(N(CCF)S(C)(=O)=O)c(-c3cccc(-c4nc5ncccc5o4)c3)cc12` [Example 581], the IC50 was found to be 0.5 nM.
